The results in this text go back to patent US9617310B2 (priority 2013, dated 2017).

pEC50: −log10 of the molar value.

Holding throughout (assay type): cell-based
Assay [1] deals with NS3/4a protease inhibitor resistant variant D168A in genotype 1b transient HCV replicon. As to the kind of experiment: Transient-transfected HCV replicon, genotype 1b D168A. As to conditions: Hepatitis C virus, 72 h, read-out: EC50 1B D168A.
Assay [2] has as its system genotype 4a stable HCV replicon (ED43) in Huh-7-derived cells. Description: Stable subgenomic HCV replicon, genotype 4a, Renilla luciferase. As to conditions: Hepatitis C virus, 72 h, read-out: EC50 4A RLUC. The essentials: (§1)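 Replicons carry hRLuc-neo, EMCV IRES and NS3-NS5B with adaptive mutations: 1a H77 P1496L/S2204I, 1b Con1 E1202G/T1280I/K1846T, 4a ED43 Q1691R/S2204I. EC50 came from non-linear regression versus DMSO and a triple-inhibitor full-inhibition control.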

Assay [3] relates to genotype 2a stable HCV replicon (JFH-1) in Huh-7-derived cells. Description: Stable subgenomic HCV replicon, genotype 2a, Renilla luciferase. As to conditions: Hepatitis C virus, stable replicon genotype 2a, 72 h, read-out: EC50 2A RLUC.
Assay [4] has as its system genotype 1a stable HCV replicon (H77) in Huh-7-derived cells. Description: Stable subgenomic HCV replicon, genotype 1a, Renilla luciferase. The conditions noted are these: Hepatitis C virus, stable replicon genotype 1a, 72 h, read-out: EC50 1A RLUC. An outline of the steps: as §1
The test system of assay [5] is NS3/4a protease inhibitor resistant variant R155K in genotype 1a transient HCV replicon. As to the kind of experiment: Transient-transfected HCV replicon, genotype 1a R155K. The conditions noted are these: Hepatitis C virus, 72 h, read-out: EC50 1A R155K.
The subject of assay [6] is genotype 3a transient HCV replicon (S52) in Huh-7-derived cells. As to the kind of experiment: Transient-transfected HCV replicon, genotype 3a wild type. As to conditions: Hepatitis C virus; transient-transfected replicon genotype 3a wild type, 72 h; read-out: EC50 3A WT.
Assay [7] relates to genotype 1a (H77) wild-type transient HCV replicon in Huh-7-derived cells. As to the kind of experiment: Transient-transfected HCV replicon, genotype 1a wild type. As to conditions: Hepatitis C virus; transient-transfected replicon genotype 1a wild type, 72 h; read-out: EC50 1A WT.
The test system of assay [8] is genotype 1b wild-type transient HCV replicon in Huh-7-derived cells. Description: Transient-transfected HCV replicon, genotype 1b wild type. As to conditions: Hepatitis C virus; transient-transfected replicon genotype 1b wild type, 72 h; read-out: EC50 1B WT.
For assay [9], the system named is genotype 3a stable HCV replicon (S52) in Huh-7-derived cells. Description: Stable subgenomic HCV replicon, genotype 3a, Renilla luciferase. The conditions noted are these: Hepatitis C virus, 72 h, read-out: EC50 3A RLUC.

Turning to `CC(C)(C)[C@@H]1NC(=O)O[C@@H]2C[C@@H]3C[C@@H]3[C@H]2CC/C=C/C(F)(F)c2nc3ccc(C#N)cc3nc2O[C@@H]2C[C@@H](C(=O)N[C@]3(C(=O)NS(=O)(=O)C4(C)CC4)C[C@H]3C(F)F)N(C2)C1=O` [Example 13, (1aS,2aR,6S,9S,11R,20E,23aR,23bS)-6-tert-butyl-15-cyano-N-[(1R,2R)-2-(difluoromethyl)-1-{[(1-methylcyclopropyl)sulfonyl]carbamoyl}cyclopropyl]-19,19-difluoro-4,7-dioxo-1a,2,2a,4,5,6,7,10,11,19,22,23,23a,23b-tetradecahydro-1H,9H-8,11-methanocyclopropa[4′,5′]cyclopenta[1′,2′18,19][1,10,3,6]dioxadiazacyclononadecino[11,12-b]quinoxaline-9-carboxamide], the pEC50 is 8.96 in [1]; 8.44 in assay [2]; 8.85 in assay [3]; 8.47 in [4]; 8.70 in [5]; 8.55 in assay [6]. In addition, the negative-log EC50 (pEC50) is 8.55 in assay [7], 9.00 in assay [8] and 8.14 in assay [9].

Turning to `CC(C)(C)[C@@H]1NC(=O)O[C@@H]2C[C@@H]3C[C@@H]3[C@H]2CCCCC(F)(F)c2nc3ccc(C#N)cc3nc2O[C@@H]2C[C@@H](C(=O)N[C@]3(C(=O)NS(=O)(=O)C4(C)CC4)C[C@H]3C(F)F)N(C2)C1=O` [Example 14, (1aS,2aR,6S,9S,11R,23aR,23bS)-6-tert-butyl-15-cyano-N-[(1R,2R)-2-(difluoromethyl)-1-{[(1-methylcyclopropyl)sulfonyl]carbamoyl}cyclopropyl]-19,19-difluoro-4,7-dioxo-1a,2,2a,4,5,6,7,10,11,19,20,21,22,23,23a,23b-hexadecahydro-1H,9H-8,11-methanocyclopropa[4′,5′]cyclopenta [1′,2′:18,19][1,10,3,6]dioxadiazacyclononadecino[11,12-b]quinoxaline-9-carboxamide], the pEC50 is 9.19 in [1]; 8.85 in [2]; 8.85 in [3]; 8.85 in assay [4]; 9.16 in [5]; 8.85 in [6]. The pEC50 was 9.05 in assay [7], 9.26 in assay [8] and 8.30 in assay [9].

Regarding `CC(C)(C)[C@@H]1NC(=O)O[C@@H]2C[C@@H]3C[C@@H]3[C@H]2CCCCC(F)(F)c2nc3ccc(OC(F)F)cc3nc2O[C@@H]2C[C@@H](C(=O)N[C@]3(C(=O)NS(=O)(=O)C4CC4)C[C@H]3C(F)F)N(C2)C1=O` [Example 16, (1aS,2aR,6S,9S,11R,23aR,23bS)-6-tert-butyl-N-[(1R,2R)-1-[(cyclopropylsulfonyl)carbamoyl]-2-(difluoromethyl)cyclopropyl]-15-(difluoromethoxy)-19,19-difluoro-4,7-dioxo-1a,2,2a,4,5,6,7,10,11,19,20,21,22,23,23a,23b-hexadecahydro-1H,9H-8,11-methanocyclopropa[4′,5′]cyclopenta [1′,2′:18,19][1,10,3,6]dioxadiazacyclononadecino[11,12-b]quinoxaline-9-carboxamide], the pEC50 in [1] is 8.10; in assay [2], 8.64; in [3] it was 8.64; in assay [4], 8.42; in assay [5] it was 8.70; in assay [6], 7.30. Besides, the results for the negative-log EC50 (pEC50) in [7], in assay [8] and in assay [9] were 8.74, 8.80 and 6.90, respectively.

Consider `CC(C)(C)[C@@H]1NC(=O)O[C@@H]2C[C@@H]3C[C@@H]3[C@H]2CCCCC(F)(F)c2nc3ccccc3nc2O[C@@H]2C[C@@H](C(=O)N[C@]3(C(=O)NS(=O)(=O)C4(C)CC4)C[C@H]3C(F)F)N(C2)C1=O` [Example 17], for which the negative-log EC50 (pEC50) in assay [1] is 8.57; in assay [2], 8.32; in [3], 8.57; in assay [4], 8.24; in assay [5] it was 8.54; in [6] it was 8.15. Moreover, the pEC50 in [7] is 8.48; in assay [8] it was 8.89; in assay [9] it was 7.59.

Regarding `CC(C)(C)[C@@H]1NC(=O)O[C@@H]2C[C@@H]3C[C@@H]3[C@H]2CCCCC(F)(F)c2nc3ccccc3nc2O[C@@H]2C[C@@H](C(=O)N[C@]3(C(=O)NS(=O)(=O)C4CC4)C[C@H]3C(F)F)N(C2)C1=O` [Example 18], the pEC50 is 8.59 in assay [1]; 8.38 in assay [2]; 8.59 in [3]; 8.32 in [4]; 8.59 in [5]; 8.31 in [6]. Further, the negative-log EC50 (pEC50) was 8.44 in assay [7], 8.80 in assay [8] and 7.74 in assay [9].

As for `CC(C)(C)[C@@H]1NC(=O)O[C@@H]2C[C@@H]3C[C@@H]3[C@H]2CCCCCc2nc3ccc(Cl)cc3nc2O[C@@H]2C[C@@H](C(=O)N[C@]3(C(=O)NS(=O)(=O)C4CC4)C[C@H]3C(F)F)N(C2)C1=O` [Example 19, (1aS,2aR,6S,9S,11R,23aR,23bS)-6-tert-butyl-15-chloro-N-[(1R,2R)-1-[(cyclopropylsulfonyl)carbamoyl]-2-(difluoromethyl)cyclopropyl]-4,7-dioxo-1a,2,2a,4,5,6,7,10,11,19,20,21,22,23,23a, 23b-hexadecahydro-1H,9H-8,11-methanocyclopropa[4′,5′]cyclopenta[1′,2′:18,19][1,10,3,6]dioxadiazacyclononadecino[11,12-b]quinoxaline-9-carboxamide], the pEC50 was 7.80 in assay [1]; 8.74 in assay [2]; 8.51 in [3]; 8.85 in [4]; 8.72 in assay [5]; 7.77 in [6]. The pEC50 in [7] was 8.89; in [8] it was 8.96; in assay [9], 7.09.

Consider `COc1ccc2nc3c(nc2c1)O[C@@H]1C[C@@H](C(=O)N[C@]2(C(=O)NS(=O)(=O)C4(C)CC4)C[C@H]2CC(F)F)N(C1)C(=O)[C@H](C(C)(C)C)NC(=O)O[C@@H]1C[C@@H]2C[C@@H]2[C@H]1CCCCC3(F)F` [Example 20, (1aS,2aR,6S,9S,11R,23aR,23bS)-6-tert-butyl-N-[(1R,2S)-2-(2,2-difluoroethyl)-1-{[(1-methylcyclopropyl)sulfonyl]carbamoyl}cyclopropyl]-19,19-difluoro-15-methoxy-4,7-dioxo-1a,2,2a,4,5,6,7,10,11,19,20,21,22,23,23a,23b-hexadecahydro-1H,9H-8,11-methanocyclopropa[4′,5′]cyclopenta[1′,2′:18,19][1,10,3,6]dioxadiazacyclononadecino[11,12-b]quinoxaline-9-carboxamide], for which the pEC50 in [1] was 8.20; in assay [2], 8.30; in assay [3], 8.30; in assay [4], 8.22; in assay [5], 8.30; in [6], 7.92. Also, the pEC50 in assay [7] was 8.28; in assay [8] it was 8.39; in [9], 7.34.

Consider `COc1ccc2cc3c(nc2c1)O[C@@H]1C[C@@H](C(=O)N[C@]2(C(=O)NS(=O)(=O)C4CC4)C[C@H]2C(F)F)N(C1)C(=O)[C@H](C(C)(C)C)NC(=O)O[C@@H]1C[C@@H]2C[C@@H]2[C@H]1CCCCC3` [Example 21, (1aS,2aR,6S,9S,11R,23aR,23bS)-6-tert-butyl-N-[(1R,2R)-1-[(cyclopropylsulfonyl)carbamoyl]-2-(difluoromethyl)cyclopropyl]-15-methoxy-4,7-dioxo-1a,2,2a,4,5,6,7,10,11,19,20,21,22,23,23a,23b-hexadecahydro-1H,9H-8,11-methanocyclopropa[4′,5′]cyclopenta[1′,2′:18,19][1,10,3,6]dioxadiazacyclononadecino[11,12-b]quinoline-9-carboxamide], for which the negative logarithm of the EC50 (pEC50) in assay [1] was 7.66; in assay [2], 8.85; in [3], 8.46; in assay [4], 8.80; in assay [5], 8.85; in [6], 7.44. For the same molecule, the pEC50 is 8.82 in assay [7], 9.21 in [8] and 6.94 in assay [9].
